Test results: patent US20240124460A1, “METHODS AND COMPOSITIONS FOR TARGETED PROTEIN DEGRADATION” (Ranok Therapeutics (Hangzhou) Co. Ltd., priority 2020, published 2024)
Read-outs that look alike come from different tables or passages of the source.

Legend:
[1] = system: U-87 MG human glioblastoma; assay: U87 MG CCK-8 proliferation assay; assay type: cell-based; conditions: Homo sapiens, U-87 MG cells, read-out: U87MG CCK-8
Method: The following cancer cell lines were employed: A549 human lung carcinoma (ATCC, #CCL-185); BT-474 human breast carcinoma (ATCC, #HTB-20); MDA-MB-231 human breast adenocarcinoma (ATCC, #CRM−HTB-26); MDA-MB-468 human breast adenocarcinoma (ATCC, #HTB-132); MV-4-11 human acute myeloid leukemia (ATCC, #CRL-9591); and U-87 MG human glioblastoma (ATCC, #HTB-14). Cell lines were cultured essentially according to ATCC recommendations.
3-fold serial dilutions of each test compound were prepared ranging from 20 μM to 1.02 nM.
% Inhibition=100−(D−B)/(S−B)*100%. • S: Absorbance of cells treated with DMSO • D: Absorbance of compound-treated cells • B: Absorbance of medium with DMSO without cells

[2] = system: MV-4-11 human acute myeloid leukemia; assay: MV-4-11 CCK-8 proliferation assay; assay type: cell-based; conditions: Homo sapiens, MV4-11; MV-4-11 cells, 72 hr
Summary of the method: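 Inhibition is derived from CCK-8 absorbance of compound-treated cells relative to DMSO-treated cells, after subtracting a cell-free medium/DMSO background. Test concentrations span 20 μM down to 1.02 nM in 3-fold steps, and lines are cultured as ATCC recommends.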

In the case of `CCNC(=O)c1nnc(-c2cc(CC)c(O)cc2OC)n1-c1ccc(CN2CCN(CC3CCN(C(=O)C4CCN(c5ccc(Nc6ncc7c(n6)N(S(C)(=O)=O)c6ccccc6C(=O)N7C)c(OCC)c5)CC4)CC3)CC2)cc1` [Compound 171, 4-(4-((4-((1-(1-(3-ethoxy-4-((5-methyl-11-(methylsulfonyl)-6-oxo-6,11-dihydro-5H-benzo[e]pyrimido[5,4-b][1,4]diazepin-2-yl)amino)phenyl)piperidine-4-carbonyl)piperidin-4-yl)methyl)piperazin-1-yl)methyl)phenyl)-N-ethyl-5-(5-ethyl-4-hydroxy-2-methoxyphenyl)-4H-1,2,4-triazole-3-carboxamide], the EC50 ([1]; U-87 MG, 72 h) is reported as > 1000 nM and the EC50 [2] is reported as > 1000 nM.
`CCOc1cc(N2CCC(C(=O)N3CCN(Cc4ccc(-n5c(C(=O)NCCN6CCN(S(C)(=O)=O)CC6)nnc5-c5cc(C(C)C)c(O)cc5O)cc4)CC3)CC2)ccc1Nc1ncc2c(n1)N(C)c1ccccc1C(=O)N2C` [Compound 172, 5-(2,4-dihydroxy-5-isopropylphenyl)-4-(4-((4-(1-(4-((5,11-dimethyl-6-oxo-6,11-dihydro-5H-benzo[e]pyrimido[5,4-b][1,4]diazepin-2-yl)amino)-3-ethoxyphenyl)piperidine-4-carbonyl)piperazin-1-yl)methyl)phenyl)-N-(2-(4-(methylsulfonyl)piperazin-1-yl)ethyl)-4H-1,2,4-triazole-3-carboxamide] was tested, and the EC50 ([1]; U-87 MG, 72 h) was < 100 nM and the EC50 [2] was < 100 nM.
With `CCOc1cc(N2CCC(C(=O)N3CCN(Cc4ccc(-n5c(C(=O)NCC(F)(F)C(F)(F)F)nnc5-c5cc(C(C)C)c(O)cc5O)cc4)CC3)CC2)ccc1Nc1ncc2c(n1)N(C)c1ccccc1C(=O)N2C` [Compound 173, 5-(2,4-dihydroxy-5-isopropylphenyl)-4-(4-((4-(1-(4-((5,11-dimethyl-6-oxo-6,11-dihydro-5H-benzo[e]pyrimido[5,4-b][1,4]diazepin-2-yl)amino)-3-ethoxyphenyl)piperidine-4-carbonyl)piperazin-1-yl)methyl)phenyl)-N-(2,2,3,3,3-pentafluoropropyl)-4H-1,2,4-triazole-3-carboxamide] the EC50 ([1]; U-87 MG, 72 h) was < 100 nM and the EC50 [2] was < 100 nM.
With `CCOc1cc(N2CCC(C(=O)N3CCN(Cc4ccc(-n5c(C(=O)NCCN6CCN(S(C)(=O)=O)CC6)nnc5-c5cc(C(C)C)c(O)cc5O)cc4)CC3)CC2)ccc1Nc1ncc2c(n1)N(S(C)(=O)=O)c1ccccc1C(=O)N2C` [Compound 174, 5-(2,4-dihydroxy-5-isopropylphenyl)-4-(4-((4-(1-(3-ethoxy-4-((5-methyl-11-(methylsulfonyl)-6-oxo-6,11-dihydro-5H-benzo[e]pyrimido[5,4-b][1,4]diazepin-2-yl)amino)phenyl)piperidine-4-carbonyl)piperazin-1-yl)methyl)phenyl)-N-(2-(4-(methylsulfonyl)piperazin-1-yl)ethyl)-4H-1,2,4-triazole-3-carboxamide] the EC50 ([1]; U-87 MG, 72 h) was < 100 nM and the EC50 [2] was < 100 nM.
For `CCOc1cc(N2CCC(C(=O)N3CCN(Cc4ccc(-n5c(C(=O)NCC(F)(F)C(F)(F)F)nnc5-c5cc(C(C)C)c(O)cc5O)cc4)CC3)CC2)ccc1Nc1ncc2c(n1)N(S(C)(=O)=O)c1ccccc1C(=O)N2C` [Compound 175, 5-(2,4-dihydroxy-5-isopropylphenyl)-4-(4-((4-(1-(3-ethoxy-4-((5-methyl-11-(methylsulfonyl)-6-oxo-6,11-dihydro-5H-benzo[e]pyrimido[5,4-b][1,4]diazepin-2-yl)amino)phenyl)piperidine-4-carbonyl)piperazin-1-yl)methyl)phenyl)-N-(2,2,3,3,3-pentafluoropropyl)-4H-1,2,4-triazole-3-carboxamide], the EC50 ([1]; U-87 MG, 72 h) was < 100 nM and the EC50 [2] was < 100 nM.
For `CCOc1cc(N2CCC(CN3CCN(Cc4ccc(-n5c(C(=O)NCC(F)(F)F)nnc5-c5cc(C(C)C)c(O)cc5O)cc4)CC3)CC2)ccc1Nc1ncc2c(n1)N(S(C)(=O)=O)c1ccccc1C(=O)N2C` [Compound 178, 5-(2,4-dihydroxy-5-isopropylphenyl)-4-(4-((4-((1-(3-ethoxy-4-((5-methyl-11-(methylsulfonyl)-6-oxo-6,11-dihydro-5H-benzo[e]pyrimido[5,4-b][1,4]diazepin-2-yl)amino)phenyl)piperidin-4-yl)methyl)piperazin-1-yl)methyl)phenyl)-N-(2,2,2-trifluoroethyl)-4H-1,2,4-triazole-3-carboxamide], the EC50 ([1]; U-87 MG, 72 h) was < 100 nM and the EC50 [2] was < 100 nM.
For `CCOc1cc(N2CCC(CN3CCC(CN4CCN(Cc5ccc(-n6c(C(=O)NC(C)C(F)(F)F)nnc6-c6cc(CC)c(O)cc6O)cc5)CC4)CC3)CC2)ccc1Nc1ncc2c(n1)N(S(C)(=O)=O)c1ccccc1C(=O)N2C` (centres unmarked) [Compound 179, 4-(4-((4-((1-((1-(3-ethoxy-4-((5-methyl-11-(methylsulfonyl)-6-oxo-6,11-dihydro-5H-benzo[e]pyrimido[5,4-b][1,4]diazepin-2-yl)amino)phenyl)piperidin-4-yl)methyl)piperidin-4-yl)methyl)piperazin-1-yl)methyl)phenyl)-5-(5-ethyl-2,4-dihydroxyphenyl)-N-(1,1,1-trifluoropropan-2-yl)-4H-1,2,4-triazole-3-carboxamide 2,2,2-trifluoroacetate], the EC50 ([1]; U-87 MG, 72 h) was < 100 nM and the EC50 [2] was < 100 nM.
`CCOc1cc(N2CCC(C(=O)N3CCN(Cc4ccc(-n5c(O)nnc5-c5cc(C(C)C)c(OP(=O)(O)O)cc5O)cc4)CC3)CC2)ccc1Nc1ncc2c(n1)N(C)c1ccccc1C(=O)N2C` [Compound 180, 4-(4-(4-((4-(1-(4-((5,11-dimethyl-6-oxo-6,11-dihydro-5H-benzo[e]pyrimido[5,4-b][1,4]diazepin-2-yl)amino)-3-ethoxyphenyl)piperidine-4-carbonyl)piperazin-1-yl)methyl)phenyl)-5-hydroxy-4H-1,2,4-triazol-3-yl)-5-hydroxy-2-isopropylphenyl dihydrogen phosphate] was tested, and the EC50 ([1]; 72 hr) was < 100 nM and the EC50 [2] was < 100 nM.
With `CCOc1cc(N2CCC(CN3CCC(CN4CCN(Cc5ccc(-n6c(C(=O)NC(C)C(F)(F)F)nnc6-c6cc(C(C)C)c(O)cc6O)cc5)CC4)CC3)CC2)ccc1Nc1ncc2c(n1)N(S(C)(=O)=O)c1ccccc1C(=O)N2C` (centres unmarked) [Compound 181, 5-(2,4-dihydroxy-5-isopropylphenyl)-4-(4-((4-((1-((1-(3-ethoxy-4-((5-methyl-11-(methylsulfonyl)-6-oxo-6,11-dihydro-5H-benzo[e]pyrimido[5,4-b][1,4]diazepin-2-yl)amino)phenyl)piperidin-4-yl)methyl)piperidin-4-yl)methyl)piperazin-1-yl)methyl)phenyl)-N-(1,1,1-trifluoropropan-2-yl)-4H-1,2,4-triazole-3-carboxamide] the EC50 ([1]; U-87 MG, 72 h) was 100 to 1000 nM and the EC50 [2] was < 100 nM.
In the case of `CCOc1cc(N2CCC(CN3CC4(CCN(Cc5ccc(-n6c(O)nnc6-c6cc(C(C)C)c(O)cc6O)cc5)CC4)C3)CC2)ccc1Nc1ncc2c(n1)N(S(C)(=O)=O)c1ccccc1C(=O)N2C` [Compound 183, 2-((4-(4-((7-(4-(3-(2,4-dihydroxy-5-isopropylphenyl)-5-hydroxy-4H-1,2,4-triazol-4-yl)benzyl)-2,7-diazaspiro[3.5]nonan-2-yl)methyl)piperidin-1-yl)-2-ethoxyphenyl)amino)-5-methyl-11-(methylsulfonyl)-5,11-dihydro-6H-benzo[e]pyrimido[5,4-b][1,4]diazepin-6-one], the EC50 ([1]; U-87 MG, 72 h) is reported as 100 to 1000 nM and the EC50 [2] is reported as < 100 nM.
In the case of `CCOc1cc(N2CCC(CN3CCC4(CC3)CN(Cc3ccc(-n5c(O)nnc5-c5cc(C(C)C)c(O)cc5O)cc3)C4)CC2)ccc1Nc1ncc2c(n1)N(S(C)(=O)=O)c1ccccc1C(=O)N2C` [Compound 184, 2-((4-(4-((2-(4-(3-(2,4-dihydroxy-5-isopropylphenyl)-5-hydroxy-4H-1,2,4-triazol-4-yl)benzyl)-2,7-diazaspiro[3.5]nonan-7-yl)methyl)piperidin-1-yl)-2-ethoxyphenyl)amino)-5-methyl-11-(methylsulfonyl)-5,11-dihydro-6H-benzo[e]pyrimido[5,4-b][1,4]diazepin-6-one], the EC50 ([1]; U-87 MG, 72 h) is reported as 100 to 1000 nM and the EC50 [2] is reported as < 100 nM.
In the case of `CCOc1cc(N2CCC(CN3CCN(Cc4ccc(-n5c(C(=O)NC(C)C(F)(F)F)nnc5-c5cc(CC)c(O)cc5O)cc4)CC3)CC2)ccc1Nc1ncc2c(n1)N(S(C)(=O)=O)c1ccccc1C(=O)N2C` (centres unmarked) [Compound 185, 4-(4-((4-((1-(3-ethoxy-4-((5-methyl-11-(methylsulfonyl)-6-oxo-6,11-dihydro-5H-benzo[e]pyrimido[5,4-b][1,4]diazepin-2-yl)amino)phenyl)piperidin-4-yl)methyl)piperazin-1-yl)methyl)phenyl)-5-(5-ethyl-2,4-dihydroxyphenyl)-N-(1,1,1-trifluoropropan-2-yl)-4H-1,2,4-triazole-3-carboxamide], the EC50 ([1]; U-87 MG, 72 h) is reported as 100 to 1000 nM and the EC50 [2] is reported as < 100 nM.
In the case of `CCOc1cc(N2CCC(CN3CCN(Cc4ccc(-n5c(C(=O)NC(C)C(F)(F)F)nnc5-c5cc(CC)c(O)cc5O)cc4)CC3)CC2)ccc1Nc1ncc2c(n1)N(C1CCCC1)c1ccccc1C(=O)N2C` (centres unmarked) [Compound 186, 4-(4-((4-((1-(4-((11-cyclopentyl-5-methyl-6-oxo-6,11-dihydro-5H-benzo[e]pyrimido[5,4-b][1,4]diazepin-2-yl)amino)-3-ethoxyphenyl)piperidin-4-yl)methyl)piperazin-1-yl)methyl)phenyl)-5-(5-ethyl-2,4-dihydroxyphenyl)-N-(1,1,1-trifluoropropan-2-yl)-4H-1,2,4-triazole-3-carboxamide], the EC50 ([1]; U-87 MG, 72 h) is reported as > 1000 nM and the EC50 [2] is reported as 100 to 1000 nM.
